Test results from ChEMBL document CHEMBL3414453, “Design and optimization of hybrid of 2,4-diaminopyrimidine and arylthiazole scaffold as anticancer cell proliferation and migration agents” (Eur J Med Chem, 2015).
pIC50: −log10 of the molar value.

Legend:
MCF7 = assay: Cytotoxicity against human MCF7 cells assessed as growth inhibition after 48 hrs by sulforhodamine B assay; assay type: functional, cell-based; details: MCF7, 48 h
MDA-MB-231 = assay: Cytotoxicity against human MDA-MB-231 cells assessed as growth inhibition after 48 hrs by sulforhodamine B assay; assay type: functional, cell-based; details: MDA-MB-231, 48 h

With `Cc1nc(Nc2ncc(C(=O)Nc3c(C)cccc3Cl)s2)cc(N2CCN(CCO)CC2)n1` [DASATINIB] as the compound, how does the pIC50 (MCF7) read?
The pIC50 was 5.09.

What about the pIC50 (MDA-MB-231) of the same compound?
The pIC50 was 5.95.
